17 compounds from patent US10562908B2, “Ortho substituted phenylpyrazolo- and phenylpyrrolo-pyridazine derivatives having multimodal activity against pain” (priority 2016, dated 2020) can be followed below.

In one assay the target is T1, human μ-opioid receptor (Homo sapiens, UniProt P35372).
T1 construct: expressed in transfected cells; host or cells: CHO-K1
Nature of the assay: Human μ-opioid receptor radioligand assay ([3H]-DAMGO). Format: binding. The gist of the method:
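Transfected CHO-K1 membranes (20 μg) incubated with 1 nM [3H]-DAMGO in 50 mM Tris-HCl, 5 mM MgCl2, pH 7.4, 60 min at 27 °C; non-specific binding with 10 μM naloxone. Test compound at five concentrations; bound radioactivity counted after filtration by scintillation.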

Assay [1] addresses Human α2δ-1 subunit of Cav2.2 calcium channel (Homo sapiens, UniProt P54289). The experiment in a line: Human α2δ-1 subunit of Cav2.2 calcium channel assay ([3H]-Gabapentin). It counts as binding. The gist of the method:
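α2δ-1-enriched membranes (2.5 μg) were incubated with 15 nM [3H]-gabapentin in 10 mM Hepes-KOH pH 7.4 for 60 min at 27 °C. Non-specific binding was defined with 10 μM pregabalin. Compounds were tested at five concentrations, with filtration and scintillation counting.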

[2] abbreviates: transfected CHO-K1 cell membranes, 1 nM [3H]-DAMGO, read-out: Binding μ (Ki).
Setting [3] is: human α2δ-1 enriched membranes, 15 nM [3H]-Gabapentin, read-out: Binding α2δ-1 (Ki).

Where two headings read alike, the source gives them in different places. Where only a bound is given, the exact number is not on record here.

As usually defined, the Ki is a measure of affinity in units of concentration, obtained from inhibition or displacement.

Sequence of Human α2δ-1 subunit of Cav2.2 calcium channel (P54289 25-1103): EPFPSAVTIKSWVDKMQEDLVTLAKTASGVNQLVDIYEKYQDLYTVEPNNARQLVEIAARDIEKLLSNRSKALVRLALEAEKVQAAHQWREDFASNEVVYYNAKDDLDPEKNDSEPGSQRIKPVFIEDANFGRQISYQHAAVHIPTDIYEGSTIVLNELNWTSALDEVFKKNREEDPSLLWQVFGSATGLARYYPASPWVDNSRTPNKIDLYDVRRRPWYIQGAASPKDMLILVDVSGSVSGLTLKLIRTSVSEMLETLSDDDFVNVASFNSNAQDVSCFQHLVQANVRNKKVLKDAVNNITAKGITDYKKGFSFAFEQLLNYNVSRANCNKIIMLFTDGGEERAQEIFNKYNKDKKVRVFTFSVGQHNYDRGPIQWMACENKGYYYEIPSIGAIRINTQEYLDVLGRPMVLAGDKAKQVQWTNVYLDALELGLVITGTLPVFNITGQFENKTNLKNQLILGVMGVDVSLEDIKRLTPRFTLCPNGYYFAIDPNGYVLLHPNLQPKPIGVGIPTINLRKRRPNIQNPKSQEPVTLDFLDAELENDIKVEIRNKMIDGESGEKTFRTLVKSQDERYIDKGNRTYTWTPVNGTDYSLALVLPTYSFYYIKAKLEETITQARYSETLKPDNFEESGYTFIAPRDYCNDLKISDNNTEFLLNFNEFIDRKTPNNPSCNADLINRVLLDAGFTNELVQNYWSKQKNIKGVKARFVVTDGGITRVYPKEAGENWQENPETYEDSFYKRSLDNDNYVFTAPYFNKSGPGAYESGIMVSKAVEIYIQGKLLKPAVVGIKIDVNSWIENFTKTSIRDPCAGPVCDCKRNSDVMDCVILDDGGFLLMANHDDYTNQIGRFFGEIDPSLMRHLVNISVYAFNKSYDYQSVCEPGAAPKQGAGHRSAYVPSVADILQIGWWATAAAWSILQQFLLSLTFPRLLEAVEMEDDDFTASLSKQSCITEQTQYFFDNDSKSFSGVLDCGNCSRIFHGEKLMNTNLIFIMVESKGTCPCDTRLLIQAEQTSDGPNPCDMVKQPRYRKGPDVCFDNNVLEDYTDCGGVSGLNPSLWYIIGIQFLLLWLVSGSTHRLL
T1 sequence (P35372 whole entry): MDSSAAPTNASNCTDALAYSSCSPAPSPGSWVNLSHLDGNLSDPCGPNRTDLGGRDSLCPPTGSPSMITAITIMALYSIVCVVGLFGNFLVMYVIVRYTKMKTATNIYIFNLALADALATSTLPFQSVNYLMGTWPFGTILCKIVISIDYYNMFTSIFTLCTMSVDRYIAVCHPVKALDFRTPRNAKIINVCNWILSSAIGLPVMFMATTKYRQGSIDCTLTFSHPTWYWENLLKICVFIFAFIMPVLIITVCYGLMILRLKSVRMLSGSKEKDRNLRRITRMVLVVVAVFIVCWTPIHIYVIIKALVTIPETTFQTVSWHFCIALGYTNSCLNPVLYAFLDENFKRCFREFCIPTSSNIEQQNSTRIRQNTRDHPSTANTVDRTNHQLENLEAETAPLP

Regarding `CNCCC(Oc1ccccc1-n1cc2cnnc(N(C)C)c2n1)c1ccccc1` (stereo not shown) [Example 71, N,N-dimethyl-2-(2-(3-(methylamino)-1-phenylpropoxy)phenyl)-2H-pyrazolo[3,4-d]pyridazin-7-amine], the Ki at human μ-opioid receptor (setting [2]) is greater than 500 nM; in assay [1] (setting [3]), 0.5 to 5 µM.
Regarding `CCNCCC(Oc1ccccc1-n1nc2c(N(C)C)nnc(C)c2c1C)c1cccc(F)c1` (stereo not shown) [Example 47, 2-(2-(3-(ethylamino)-1-(3-fluorophenyl)propoxy)phenyl)-N,N,3,4-tetramethyl-2H-pyrazolo[3,4-d]pyridazin-7-amine], the Ki on human μ-opioid receptor is 100 to 500 nM; in assay [1], less than 0.5 µM.
For the compound `Cc1nnc(N(C)C)c2nn(-c3ccccc3OC3CCNCC3)c(C)c12` [Example 13, N,N,3,4-tetramethyl-2-(2-(piperidin-4-yloxy)phenyl)-2H-pyrazolo[3,4-d]pyridazin-7-amine], the inhibitory constant (Ki) was greater than 500 nM at human μ-opioid receptor (setting [2]) and greater than 5 µM in assay [1] (setting [3]).
For `CNCCC(Oc1ccccc1-n1nc2c(N(C)CCCO)nnc(C)c2c1C)c1ccccc1` (stereo not shown) [Example 61, 3-((3,4-dimethyl-2-(2-(3-(methylamino)-1-phenylpropoxy)phenyl)-2H-pyrazolo[3,4-d]pyridazin-7-yl)(methyl)amino)propan-1-ol], in that order: greater than 500 nM and 0.5 to 5 µM.
Regarding `CCNCC[C@H](Oc1ccccc1-n1nc2c(N(C)C)nnc(C)c2c1C)c1ccccc1` [Example 102, (S)-2-(2-(3-(ethylamino)-1-phenylpropoxy)phenyl)-N,N,3,4-tetramethyl-2H-pyrazolo[3,4-d]pyridazin-7-amine], the Ki is greater than 500 nM on human μ-opioid receptor and 0.5 to 5 µM in assay [1].
In the case of `Cc1nnc(N(C)C)c2nn(-c3ccccc3OC(c3ccccc3)C3CCN(C)CC3)c(C)c12` (stereo not shown) [Example 54, N,N,3,4-tetramethyl-2-(2-((1-methylpiperidin-4-yl)(phenyl)methoxy)phenyl)-2H-pyrazolo[3,4-d]pyridazin-7-amine], the values for the Ki (on human μ-opioid receptor (setting [2]); in assay [1] (setting [3])) were greater than 500 nM and greater than 5 µM, respectively.
The corresponding values for `Cc1nnc(N(C)C)c2nn(-c3ccccc3OCC(N)c3ccccc3)c(C)c12` (stereo not shown) [Example 17, 2-(2-(2-amino-2-phenylethoxy)phenyl)-N,N,3,4-tetramethyl-2H-pyrazolo[3,4-d]pyridazin-7-amine] are greater than 500 nM and 0.5 to 5 µM.
As to `CNCC[C@@H](Oc1ccccc1-n1nc2c(N(C)C)nnc(C)c2c1C)c1cccc(F)c1` [Example 104, (R)-2-(2-(1-(3-fluorophenyl)-3-(methylamino)propoxy)phenyl)-N,N,3,4-tetramethyl-2H-pyrazolo[3,4-d]pyridazin-7-amine], the inhibitory constant (Ki) on human μ-opioid receptor lay in the range of 100 to 500 nM; in assay [1] it was 0.5 to 5 µM.
As for `CNCCC(Oc1ccccc1-n1nc2c(N(C)CCO)nnc(C)c2c1C)c1ccccc1` (stereo not shown) [Example 59, 2-((3,4-Dimethyl-2-(2-(3-(methylamino)-1-phenylpropoxy)phenyl)-2H-pyrazolo[3,4-d]pyridazin-7-yl)(methyl)amino)etanol], the inhibitory constant (Ki) at human μ-opioid receptor (setting [2]) is greater than 500 nM; in assay [1] (setting [3]) it was 0.5 to 5 µM.
As for `Cc1nnc(N(C)C)c2nn(-c3ccccc3OCC3CNCc4ccccc43)c(C)c12` (stereo not shown) [Example 30, N,N,3,4-tetramethyl-2-(2-((1,2,3,4-tetrahydroisoquinolin-4-yl)methoxy)phenyl)-2H-pyrazolo[3,4-d]pyridazin-7-amine], the inhibition constant Ki on human μ-opioid receptor (setting [2]) was greater than 500 nM; in assay [1] (setting [3]) it was greater than 5 µM.
The corresponding values for `CNCCC(Oc1cc(C(N)=O)ccc1-n1nc2c(N(C)C)nnc(C)c2c1C)c1ccccc1` (stereo not shown) [Example 94, 4-(7-(dimethylamino)-3,4-dimethyl-2H-pyrazolo[3,4-d]pyridazin-2-yl)-3-(3-(methylamino)-1-phenylpropoxy)benzamide] are greater than 500 nM and greater than 5 µM.
For `CCOc1ccc(-n2nc3c(N(C)C)nnc(C)c3c2C)c(OC(CCNC)c2ccccc2)c1` (stereo not shown) [Example 87, 2-(4-Ethoxy-2-(3-(methylamino)-1-phenylpropoxy)phenyl)-N,N,3,4-tetramethyl-2H-pyrazolo[3,4-d]pyridazin-7-amine], the Ki on human μ-opioid receptor was greater than 500 nM; in assay [1], less than 0.5 µM.
As for `CNCCC(Oc1ccccc1-n1nc2c(N(C)C)nnc(C)c2c1C)C1CCOCC1` (stereo not shown) [Example 16, N,N,3,4-tetramethyl-2-(2-(3-(methylamino)-1-(tetrahydro-2H-pyran-4-yl)propoxy)phenyl)-2H-pyrazolo[3,4-d]pyridazin-7-amine], the Ki on human μ-opioid receptor (setting [2]) is greater than 500 nM; in assay [1] (setting [3]) it was greater than 5 µM.
The corresponding values for `CNCCC(Oc1ccc(OC)cc1-n1nc2c(N(C)C)nnc(C)c2c1C)c1ccccc1` (stereo not shown) [Example 88, 2-(5-methoxy-2-(3-(methylamino)-1-phenylpropoxy)phenyl)-N,N,3,4-tetramethyl-2H-pyrazolo[3,4-d]pyridazin-7-amine] are greater than 500 nM and 0.5 to 5 µM.
The corresponding values for `CNCCC(Oc1ccccc1-n1nc2cnnc(C)c2c1C)c1ccccc1` (stereo not shown) [Example 66, 3-(2-(3,4-Dimethyl-2H-pyrazolo[3,4-d]pyridazin-2-yl)phenoxy)-N-methyl-3-phenylpropan-1-amine] are greater than 500 nM and greater than 5 µM.
For `CNCCC(Oc1ccccc1-n1nc2c(C)nnc(C)c2c1C)c1ccccc1` (stereo not shown) [Example 69, N-methyl-3-phenyl-3-(2-(3,4,7-trimethyl-2H-pyrazolo[3,4-d]pyridazin-2-yl)phenoxy)propan-1-amine], in that order: greater than 500 nM and greater than 5 µM.
As to `COCC(CCN(C)Cc1ccccc1)Oc1ccccc1-n1nc2c(N(C)C)nnc(C)c2c1C` (stereo not shown) [Example 43, 2-(2-((4-(benzyl(methyl)amino)-1-methoxybutan-2-yl)oxy)phenyl)-N,N,3,4-tetramethyl-2H-pyrazolo[3,4-d]pyridazin-7-amine], the Ki on human μ-opioid receptor (setting [2]) is greater than 500 nM; in assay [1] (setting [3]), 0.5 to 5 µM.
